Results from patent US10526323B2, “Indazole and azaindazole substituted compounds as mGluR4 allosteric potentiators, compositions, and methods of treating neurological dysfunction” (Vanderbilt University, priority 2015, dated 2020).

Target: mGluR4 (UniProt Q14833)
Experiment: mGluR4 potentiation assay: increase in response to an EC20 concentration of agonist (species not given)
Assay type: cell-based
Conditions: EC50 for potentiation of mGluR4; table does not state human or rat
Protocol: The disclosed compounds and compositions can be evaluated for their ability to act as a potentiator of metabotropic glutamate receptor activity, in particular mGluR4 activity, by any suitable known methodology known in the art. For example, Chinese Hamster Ovary (CHO) cells transfected with human mGluR4 or […] co-transfected with rat mGluR4 and the G-protein regulated Inwardly Rectifying Potassium channel (GIRK) were plated in clear bottom assay plates for assay in a Hamamatsu FDSS Fluorometric Plate Reader. The cells were loaded with either a Ca2+-sensitive fluorescent dye or the thallium responsive dye and the plates were washed and placed into a suitable kinetic plate reader. For human mGluR4 assays, a fluorescence baseline was established for 3-5 seconds, the disclosed compounds were then added to the cells, and the response in cells was measured. Approximately two and a half minutes later, a concentration of mGluR4 orthosteric agonist (e.g. glutamate or L-AP4) eliciting approximately 20% (EC20) of the maximal agonist response was added to the cells, and the response was measured. Two minutes later, a concentration of mGluR4 agonist (e.g. glutamate or L-AP4) eliciting 80% (EC80) of the maximal agonist response was added to the cells, and the response was measured. For rat mGluR4/GIRK experiments, a baseline was established for approximately five seconds, disclosed compounds were added, and either an EC20 or EC80 concentration of agonist was added approximately two and one half minutes later. Potentiation of the agonist response of mGluR4 by the disclosed compounds was observed as an increase in response to the EC20 concentration of agonist in the presence of compound compared to the response to agonist in the absence of compound. Similarly, antagonism of the agonist response of mGluR4 by the disclosed compounds was observed as a decrease in response to the EC80 concentration of agonist in the presence of compound compared to the response to agonist in the absence of compound.
The above described assay operated in two modes. In the first mode, a range of concentrations of the disclosed compounds are added to cells, followed by a single fixed concentration of agonist. If the compound acts as a potentiator, an EC50 value for potentiation and a maximum extent of potentiation by the compound at this concentration of agonist is determined by non-linear curve fitting. If the compound acts as a noncompetitive antagonist, an IC50 value is determined by non-linear curve fitting. In the second mode, several fixed concentrations of the disclosed compounds are added to various wells on a plate, followed by a range in concentrations of agonist for each concentration of disclosed compound. The EC50 values for the agonist at each concentration of compound are determined by non-linear curve fitting. A decrease in the EC50 value of the agonist with increasing concentrations of the sample compound (a leftward shift of the agonist concentration-response curve) is an indication of the degree of mGluR4 potentiation at a given concentration of the sample compound. A decrease in the maximal response of the agonist with increasing concentrations of the sample compounds, with or without a rightward shift in agonist potency, is an indication of the degree of noncompetitive antagonism at mGluR4. The second mode also indicates whether the sample compounds also affect the maximum response to mGluR4 to agonists.
These compounds are positive allosteric modulators (potentiators) of human and rat mGluR4 and were selective for mGluR4 compared to the other seven subtypes of metabotropic glutamate receptors.

| SMILES | EC50 [nM] |
| --- | --- |
| Cn1ncc2cc(Nc3n[nH]c4nccnc34)ccc21 [Example 84] | 818 |
| Cc1nn(CC2CCCC2)c2ccc(Nc3n[nH]c4cccnc34)cc12 [Example 106, N-(1-(cyclopentylmethyl)-3-methyl-1H-indazol-5-yl)-1H-pyrazolo[4,3-b]pyridin-3-amine] | 145 |
| Cc1nn(CC2CC(c3ncccc3F)=NO2)c2ccc(Nc3n[nH]c4cccnc34)cc12 (centres unmarked) [Example 115, N-(1-((3-(3-fluoropyridin-2-yl)-4,5-dihydroisoxazol-5-yl)methyl)-3-methyl-1H-indazol-5-yl)-1H-pyrazolo[4,3-b]pyridin-3-amine] | 135 |
| CCCn1nc(C)c2cc(Nc3n[nH]c4cccnc34)ccc21 [Example 113, N-(3-methyl-1-propyl-1H-indazol-5-yl)-1H-pyrazolo[4,3-b]pyridin-3-amine] | 123 |
| [2H]C([2H])([2H])n1nc(C2CC2)c2ccc(Nc3n[nH]c4ncccc34)cc21 [Example 43, N-(3-cyclopropyl-1-(methyl-d3)-1H-indazol-6-yl)-1H-pyrazolo[3,4-b]pyridin-3-amine] | 160 |
| [2H]C([2H])([2H])n1ncc2cc(Nc3n[nH]c4cccnc34)ccc21 [Example 96, N-(1-(methyl-d3)-1H-indazol-5-yl)-1H-pyrazolo[4,3-b]pyridin-3-amine] | 863 |
| Cc1nn(CC(F)(F)F)c2ncc(Nc3n[nH]c4cccnc34)cc12 [Example 253, 3-methyl-N-(1H-pyrazolo[4,3-b]pyridin-3-yl)-1-(2,2,2-trifluoroethyl)pyrazolo[3,4-b]pyridin-5-amine] | 240 |
| Cc1nn(C2CCC2)c2ccc(Nc3n[nH]c4cccnc34)cc12 [Example 107, N-(1-cyclobutyl-3-methyl-1H-indazol-5-yl)-1H-pyrazolo[4,3-b]pyridin-3-amine] | 374 |
| CCCn1nc(C)c2cc(Nc3n[nH]c4cccnc34)cnc21 [Example 264, 3-methyl-1-propyl-N-(1H-pyrazolo[4,3-b]pyridin-3-yl)pyrazolo[3,4-b]pyridin-5-amine] | 150 |
| Cc1nn(CC2CCC2)c2ccc(Nc3n[nH]c4nccnc34)cc12 [Example 73, N-(1-(cyclobutylmethyl)-3-methyl-1H-indazol-5-yl)-1H-pyrazolo[3,4-b]pyrazin-3-amine] | 186 |
| CCCn1nc(C)c2cc(Nc3n[nH]c4nccnc34)ccc21 [Example 131, N-(3-methyl-1-propyl-1H-indazol-5-yl)-1H-pyrazolo[3,4-b]pyrazin-3-amine] | 107 |
| Cc1nn(C(C)C)c2cc(Nc3n[nH]c4c3CCCC4)ccc12 [Example 20, 1-isopropyl-3-methyl-N-(4,5,6,7-tetrahydro-1H-indazol-3-yl)-1H-indazol-6-amine] | > 10000 |
| CCCCCn1nc(C)c2cc(Nc3n[nH]c4nccnc34)ccc21 [Example 95, N-(3-methyl-1-pentyl-1H-indazol-5-yl)-1H-pyrazolo[3,4-b]pyrazin-3-amine] | 35 |
| CC(C)n1ncc2cc(Nc3n[nH]c4cccnc34)cc(Cl)c21 [Example 58, N-(7-chloro-1-isopropyl-1H-indazol-5-yl)-1H-pyrazolo[4,3-b]pyridin-3-amine] | 2290 |
| FC(F)(F)Cn1nc(Cl)c2cc(Nc3n[nH]c4cccnc34)ccc21 [Example 275, N-(3-chloro-1-(2,2,2-trifluoroethyl)-1H-indazol-5-yl)-1H-pyrazolo[4,3-b]pyridin-3-amine] | 2720 |
| Cc1nn(C(C)C)c2ncc(Nc3n[nH]c4ccccc34)cc12 [Example 269, N-(1H-indazol-3-yl)-1-isopropyl-3-methyl-1H-pyrazolo[3,4-b]pyridin-5-amine] | 2550 |
| c1ccc2c(Nc3ccc4c(cnn4CC4CCC4)c3)n[nH]c2c1 [Example 86, N-(1-(cyclobutylmethyl)-1H-indazol-5-yl)-1H-indazol-3-amine] | 51.4 |
| [2H]C([2H])(C)n1nc(C)c2cc(Nc3n[nH]c4nccnc34)ccc21 [Example 127, N-(1-(ethyl-1,1-d2)-3-methyl-1H-indazol-5-yl)-1H-pyrazolo[3,4-b]pyrazin-3-amine] | 154 |
| Cn1nc(C(=O)N2CCCC2)c2ccc(Nc3n[nH]c4cccnc34)cc21 [Example 173, [1-methyl-6-(1H-pyrazolo[4,3-b]pyridin-3-ylamino)indazol-3-yl]-pyrrolidin-1-yl-methanone] | 825 |
| CCC(C)n1nc(Cl)c2cc(Nc3n[nH]c4cccnc34)ccc21 (centres unmarked) [Example 286, N-(1-(sec-butyl)-3-chloro-1H-indazol-5-yl)-1H-pyrazolo[4,3-b]pyridin-3-amine] | > 10000 |
| Cn1ncc2c(Nc3n[nH]c4cccnc34)cccc21 [Example 33, N-(1-methyl-1H-indazol-4-yl)-1H-pyrazolo[4,3-b]pyridin-3-amine] | > 10000 |
| c1cnc2c(Nc3cnc4cnn(CC5CCC5)c4c3)n[nH]c2c1 [Example 142, N-(1-(cyclobutylmethyl)-1H-pyrazolo[4,3-b]pyridin-6-yl)-1H-pyrazolo[4,3-b]pyridin-3-amine] | > 10000 |
| Cc1nn(C(C)C)c2cc(Nc3n[nH]c4nccnc34)ccc12 [Example 18, N-(1-isopropyl-3-methyl-1H-indazol-6-yl)-1H-pyrazolo[3,4-b]pyrazin-3-amine] | > 10000 |

The next lines start with the values.

| EC50 [nM] | SMILES |
| --- | --- |
| 871 | Cn1nc(-c2ccncc2)c2ccc(Nc3n[nH]c4cccnc34)cc21 [Example 218, N-[1-methyl-3-(4-pyridyl)indazol-6-yl]-1H-pyrazolo[4,3-b]pyridin-3-amine] |
| 164 | Cn1nc(OCC2CC2)c2ccc(Nc3n[nH]c4cccnc34)cc21 [Example 185, N-(3-(cyclopropylmethoxy)-1-methyl-1H-indazol-6-yl)-1H-pyrazolo[4,3-b]pyridin-3-amine] |
| 157 | Cn1nc(Oc2ccc(C#N)cn2)c2ccc(Nc3n[nH]c4cccnc34)cc21 [Example 237, 6-((6-((1H-pyrazolo[4,3-b]pyridin-3-yl)amino)-1-methyl-1H-indazol-3-yl)oxy)nicotinonitrile] |
| 992 | Cn1nc(N2CCOCC2)c2ccc(Nc3n[nH]c4cccnc34)cc21 [Example 35, N-(1-methyl-3-morpholino-1H-indazol-6-yl)-1H-pyrazolo[4,3-b]pyridin-3-amine] |
| 198 | Cn1nc(OCC(F)(F)F)c2ccc(Nc3n[nH]c4cccnc34)cc21 [Example 182, N-(1-methyl-3-(2,2,2-trifluoroethoxy)-1H-indazol-6-yl)-1H-pyrazolo[4,3-b]pyridin-3-amine] |
| 38 | CCc1nn(C)c2cc(Nc3n[nH]c4cccnc34)ccc12 [Example 24, N-(3-ethyl-1-methyl-1H-indazol-6-yl)-1H-pyrazolo[4,3-b]pyridin-3-amine] |
| 3150 | Cn1nc(O)c2ccc(Nc3n[nH]c4cccnc34)cc21 [Example 37, 6-((1H-pyrazolo[4,3-b]pyridin-3-yl)amino)-1-methyl-1H-indazol-3-ol] |
| 313 | Cn1nc(NC(=O)C(F)(F)F)c2ccc(Nc3n[nH]c4cccnc34)cc21 [Example 25, N-(6-((1H-pyrazolo[4,3-b]pyridin-3-yl)amino)-1-methyl-1H-indazol-3-yl)-2,2,2-trifluoroacetamide] |
| > 10000 | Cc1c2cc(Nc3n[nH]c4cccnc34)ccc2nn1C [Example 101, N-(2,3-dimethyl-2H-indazol-5-yl)-1H-pyrazolo[4,3-b]pyridin-3-amine] |
| 4400 | Cc1ccccc1Cc1nn(C)c2cc(Nc3n[nH]c4cccnc34)ccc12 [Example 48, N-(1-methyl-3-(2-methylbenzyl)-1H-indazol-6-yl)-1H-pyrazolo[4,3-b]pyridin-3-amine] |
| 790 | Cn1ncc2cc(Nc3n[nH]c4cccnc34)ccc21 [Example 55, N-(1-methyl-1H-indazol-5-yl)-1H-pyrazolo[4,3-b]pyridin-3-amine] |
| > 10000 | COc1ccc(-c2nn(C)c3cc(Nc4n[nH]c5cccnc45)ccc23)cn1 [Example 180, N-[3-(6-methoxy-3-pyridyl)-1-methyl-indazol-6-yl]-1H-pyrazolo[4,3-b]pyridin-3-amine] |
